Assay results published in US20210238162A1, “CHEMICAL COMPOUNDS” (GlaxoSmithKline Intellectual Property Development Limited, priority 2015, published 2021).
Counter-ions that a name gives are not always drawn. Like-named read-outs stand apart in the source and are kept apart here.

Target: T1, haematopoietic prostaglandin D synthase (H-PGDS) (Homo sapiens, UniProt O60760)
T1 construct: Full length human H-PGDS cDNA (Invitrogen Ultimate ORF IOH13026) was amplified by PCR; made in house; host or cells: E. coli BL21 (DE3*), vector pET22b+
Experiment: H-PGDS RapidFire High Throughput Mass Spectrometry Assay
Type: biochemical
In short: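 PGH2 (~10 μM burst) generated in situ from arachidonic acid by FLAG-tagged human COX-2 (Sf9-expressed), then converted to PGD2 by full-length human His-tagged H-PGDS from E. coli. PGD2 and PGF2α (substrate surrogate) quantified by RapidFire SPE-triple quadrupole MS; percent conversion calculated.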

[1] = H-PGDS RapidFire MS assay, mean pIC50, read-out: Potency Range (mean pIC50) (converted)
[2] = in at least one experimental run, read-out: H-PGDS pIC50 value (converted)

T1 sequence (O60760 whole entry): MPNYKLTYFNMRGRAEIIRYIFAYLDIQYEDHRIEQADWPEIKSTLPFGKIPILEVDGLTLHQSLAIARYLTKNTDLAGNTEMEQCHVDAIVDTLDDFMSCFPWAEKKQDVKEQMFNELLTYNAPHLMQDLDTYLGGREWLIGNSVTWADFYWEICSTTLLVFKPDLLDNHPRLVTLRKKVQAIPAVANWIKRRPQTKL

| Structure (SMILES) | IC50 [1] [nM] | IC50 [2] [nM] |
| --- | --- | --- |
| C[C@H](NC[C@H]1CC[C@H](NC(=O)c2cnc3cc(OC(F)F)c(F)cc3c2)CC1)C(F)F [Example 100, 7-(Difluoromethoxy)-N-(trans-4-((((S)-1,1-difluoropropan-2-yl)amino)methyl)cyclohexyl)-6-fluoroquinoline-3-carboxamide] | 10 to 79.4 |  |
| C#CCOC[C@H]1CC[C@H](NC(=O)c2cnc3cc(OC(F)F)c(F)cc3c2)CC1 [Example 101, 7-(Difluoromethoxy)-6-fluoro-N-(trans-4-((prop-2-yn-1-yloxy)methyl)cyclohexyl)quinoline-3-carboxamide] | < 10 |  |
| C#CCNC(=O)CO[C@H]1CC[C@H](NC(=O)c2cnc3cc(OC(F)F)c(F)cc3c2)CC1 [Example 102, 7-(Difluoromethoxy)-6-fluoro-N-(trans-4-(2-oxo-2-(prop-2-yn-1-ylamino)ethoxy)cyclohexyl)quinoline-3-carboxamide] | 10 to 79.4 |  |
| C#CCCNC(=O)CO[C@H]1CC[C@H](NC(=O)c2cnc3cc(OC(F)F)c(F)cc3c2)CC1 [Example 103, N-(trans-4-(2-(but-3-yn-1-ylamino)-2-oxoethoxy)cyclohexyl)-7-(difluoromethoxy)-6-fluoroquinoline-3-carboxamide] | 10 to 79.4 |  |
| CCc1cccc2cc(C(=O)Nc3nccs3)cnc12 [Example 105, 8-Ethyl-N-(thiazol-2-yl)quinoline-3-carboxamide] | 100 to 1000 |  |
| Cn1nnnc1N1CCC(NC(=O)c2cnc3ccc(Cl)cc3c2)CC1 [Example 106, 6-Chloro-N-(1-(1-methyl-1H-tetrazol-5-yl)piperidin-4-yl)quinoline-3-carboxamide] | 100 to 1000 |  |
| Cn1nnnc1N1CCC(NC(=O)c2cnc3cc(C(F)(F)F)ccc3c2)CC1 [Example 107, N-(1-(1-Methyl-1H-tetrazol-5-yl)piperidin-4-yl)-7-(trifluoromethyl)quinoline-3-carboxamide] | 100 to 1000 |  |
| Cn1nnnc1N1CCC(NC(=O)c2cnc3cc(Br)ccc3c2)CC1 [Example 108, 7-Bromo-N-(1-(1-methyl-1H-tetrazol-5-yl)piperidin-4-yl)quinoline-3-carboxamide] | 10 to 79.4 |  |
| Cn1nnnc1N1CCC(NC(=O)c2cnc3cc(Cl)ccc3c2)CC1 [Example 109, 7-Chloro-N-(1-(1-methyl-1H-tetrazol-5-yl)piperidin-4-yl)quinoline-3-carboxamide] | 100 to 1000 |  |
| CCc1ccc2cc(C(=O)NC3CCN(c4nnnn4C)CC3)cnc2c1 [Example 110, 7-Ethyl-N-(1-(1-methyl-1H-tetrazol-5-yl)piperidin-4-yl)quinoline-3-carboxamide] | 10 to 79.4 |  |
| Cn1nnnc1N1CCC(NC(=O)c2cnc3cc4c(cc3c2)OCCO4)CC1 [Example 111, N-(1-(1-Methyl-1H-tetrazol-5-yl)piperidin-4-yl)-2,3-dihydro-[1,4]dioxino[2,3-q]quinoline-8-carboxamide] | 10 to 79.4 |  |
| Cn1nnnc1N1CCC(NC(=O)c2cnc3c4c(ccc3c2)CCO4)CC1 [Example 112, N-(1-(1-Methyl-1H-tetrazol-5-yl)piperidin-4-yl)-2,3-dihydrofuro[3,2-h]quinoline-7-carboxamide] | 10 to 79.4 |  |
| CC(C)(O)[C@H]1CC[C@H](NC(=O)c2cnc3c4c(ccc3c2)CCO4)CC1 [Example 113, N-(trans-4-(2-Hydroxypropan-2-yl)cyclohexyl)-2,3-dihydrofuro[3,2-h]quinoline-7-carboxamide] | 10 to 79.4 |  |
| COc1cc2ncc(C(=O)NC3CCN(c4nnnn4C)CC3)cc2cc1C#N [Example 114, 6-Cyano-7-methoxy-N-(1-(1-methyl-1H-tetrazol-5-yl)piperidin-4-yl)quinoline-3-carboxamide] | 100 to 1000 |  |
| CC(C)Oc1ccc2cc(C(=O)NC3CCN(c4nnnn4C)CC3)cnc2c1 [Example 115, 7-Isopropoxy-N-(1-(1-methyl-1H-tetrazol-5-yl)piperidin-4-yl)quinoline-3-carboxamide] | 100 to 1000 |  |
| CC(C)(O)[C@H]1CC[C@H](NC(=O)c2cnc3cc(OC(F)F)c(Cl)cc3c2)CC1 [Example 116, (6-Chloro-7-(difluoromethoxy)-N-(trans-4-(2-hydroxypropan-2-yl)cyclohexyl)quinoline-3-carboxamide, trifluoroacetate] | < 10 | 2.51 |
| CC(C)(O)[C@H]1C[C@H](NC(=O)c2cnc3cc(OC(F)F)c(Cl)cc3c2)C1 [Example 118, 6-Chloro-7-(difluoromethoxy)-N-(trans-3-(2-hydroxypropan-2-yl)cyclobutyl)quinoline-3-carboxamide] | < 10 | 10 |
| CC(C)N1CC[C@H](NC(=O)c2cnc3cc(OC(F)F)c(Cl)cc3c2)C1=O [Example 119, (S)-6-Chloro-7-(difluoromethoxy)-N-(1-isopropyl-2-oxopyrrolidin-3-yl)quinoline-3-carboxamide] | 10 to 79.4 |  |

| Structure (SMILES) | IC50 [1] [nM] | IC50 [2] [nM] |
| --- | --- | --- |
| O=C(N[C@H]1CCN(CC2CC2)C1=O)c1cnc2cc(OC(F)F)c(Cl)cc2c1 [Example 120, (S)-6-Chloro-N-(1-(cyclopropylmethyl)-2-oxopyrrolidin-3-yl)-7-(difluoromethoxy)quinoline-3-carboxamide] | 10 to 79.4 |  |
| O=C(N[C@H]1CC[C@H](C2(O)CC2)CC1)c1cnc2cc(OC(F)F)c(Cl)cc2c1 [Example 121, 6-Chloro-7-(difluoromethoxy)-N-(trans-4-(1-hydroxycyclopropyl)cyclohexyl)quinoline-3-carboxamide] | < 10 |  |
| CC(C)(O)CO[C@H]1CC[C@H](NC(=O)c2cnc3cc(OC(F)F)c(Cl)cc3c2)CC1 [Example 122, 6-Chloro-7-(difluoromethoxy)-N-(trans-4-(2-hydroxy-2-methylpropoxy)cyclohexyl)quinoline-3-carboxamide] | < 10 |  |
| O=C(N[C@H]1CC[C@H](OCC2(O)CC2)CC1)c1cnc2cc(OC(F)F)c(Cl)cc2c1 [Example 123, 6-Chloro-7-(difluoromethoxy)-N-(trans-4-((1-hydroxycyclopropyl)methoxy)cyclohexyl)quinoline-3-carboxamide] | < 10 |  |
| CC(C)C(O)CO[C@H]1CC[C@H](NC(=O)c2cnc3cc(OC(F)F)c(Cl)cc3c2)CC1 (stereo partly drawn) [Example 127, 6-Chloro-7-(difluoromethoxy)-N-(trans-4-(2-hydroxy-3-methylbutoxy)cyclohexyl)quinoline-3-carboxamide] | < 10 |  |
| Cn1nc(C2CC2)cc1NC(=O)c1cnc2cc(OC(F)F)c(Cl)cc2c1 [Example 128, 6-Chloro-N-(3-cyclopropyl-1-methyl-1H-pyrazol-5-yl)-7-(difluoromethoxy)quinoline-3-carboxamide] | 10 to 79.4 |  |
| C[C@@H](N[C@H]1CC[C@H](NC(=O)c2cnc3cc(OC(F)F)c(Cl)cc3c2)CC1)C(F)F [Example 129, 6-Chloro-7-(difluoromethoxy)-N-(trans-4-(((R)-1,1-difluoropropan-2-yl)amino)cyclohexyl)quinoline-3-carboxamide] | < 10 |  |
| C[C@H](N[C@H]1CC[C@H](NC(=O)c2cnc3cc(OC(F)F)c(Cl)cc3c2)CC1)C(F)F [Example 130, 6-Chloro-7-(difluoromethoxy)-N-(trans-4-(((S)-1,1-difluoropropan-2-yl)amino)cyclohexyl)quinoline-3-carboxamide] | < 10 |  |
| O=C(N[C@H]1CC[C@H](N[C@@H](CO)C(F)(F)F)CC1)c1cnc2cc(OC(F)F)c(Cl)cc2c1 [Example 131, 6-Chloro-7-(difluoromethoxy)-N-(trans-4-(((S)-1,1,1-trifluoro-3-hydroxypropan-2-yl)amino)cyclohexyl)quinoline-3-carboxamide] | < 10 |  |
| O=C(N[C@H]1CC[C@H](N2CC(F)C2)CC1)c1cnc2cc(OC(F)F)c(Cl)cc2c1 [Example 132, 6-Chloro-7-(difluoromethoxy)-N-(trans-4-(3-fluoroazetidin-1-yl)cyclohexyl)quinoline-3-carboxamide] | < 10 |  |
| O=C(N[C@H]1CC[C@H](N2CC(O)(C(F)(F)F)C2)CC1)c1cnc2cc(OC(F)F)c(Cl)cc2c1 [Example 134, 6-Chloro-7-(difluoromethoxy)-N-(trans-4-(3-hydroxy-3-(trifluoromethyl)azetidin-1-yl)cyclohexyl)quinoline-3-carboxamide] | < 10 |  |
| O=C(N[C@H]1CC[C@H](N[C@H](CO)C(F)(F)F)CC1)c1cnc2cc(OC(F)F)c(Cl)cc2c1 [Example 135, 6-Chloro-7-(difluoromethoxy)-N-(trans-4-(((R)-1,1,1-trifluoro-3-hydroxypropan-2-yl)amino)cyclohexyl)quinoline-3-carboxamide] | < 10 |  |
| NC(=O)CO[C@H]1CC[C@H](NC(=O)c2cnc3cc(OC(F)F)c(Cl)cc3c2)CC1 [Example 136, N-(trans-4-(2-Amino-2-oxoethoxy)cyclohexyl)-6-chloro-7-(difluoromethoxy)quinoline-3-carboxamide] | < 10 |  |
| C[C@]1(O)C[C@H](NC(=O)c2cnc3cc(OC(F)F)c(Cl)cc3c2)C1 [Example 137, 6-Chloro-7-(difluoromethoxy)-N-((1r,3r)-3-hydroxy-3-methylcyclobutyl)quinoline-3-carboxamide] | 10 to 79.4 |  |
| C[C@]1(O)C[C@@H](NC(=O)c2cnc3cc(OC(F)F)c(Cl)cc3c2)C1 [Example 138, 6-Chloro-7-(difluoromethoxy)-N-((1s,3s)-3-hydroxy-3-methylcyclobutyl)quinoline-3-carboxamide] | 10 to 79.4 | 20 |
| CS(=O)(=O)CCO[C@H]1CC[C@H](NC(=O)c2cnc3cc(OC(F)F)c(Cl)cc3c2)CC1 [Example 139, 6-Chloro-7-(difluoromethoxy)-N-(trans-4-(2-(methylsulfonyl)ethoxy)cyclohexyl)quinoline-3-carboxamide] | < 10 |  |
| O=C(N[C@H]1C[C@H](O)C1)c1cnc2cc(OC(F)F)c(Cl)cc2c1 [Example 140, 6-Chloro-7-(difluoromethoxy)-N-(trans-3-hydroxycyclobutyl)quinoline-3-carboxamide] | 10 to 79.4 |  |
